Test results published in patent US20150051246A1 (priority 2013, published 2015).

Legend:
[1] = assay type: in vivo, human; details: plasma, single dose
Text: An interim analysis has been performed based on the data of 9 subjects of the Impaired Elderly group and 4 subjects of the Healthy Elderly group. For this purpose, cognitive battery test scores (VLT, SMT, Stroop task and BL-VAS) and concentrations of roflumilast and roflumilast-N-oxide in plasma have been analysed and summarized by dose over each scheduled sampling time using descriptive statistics.

[2] = assay type: in vivo, human; details: once a day (24 h) repeated dosing
Method: In the above-indicated clinical trial roflumilast was administered once in a single oral dose of 100 mcg, 300 mcg or 1000 mcg. Due to the pharmacokinetics of roflumilast and its metabolite roflumilast-N-oxide and the median plasma half-life of these compounds the steady state plasma concentration levels in a once a day (24 h) repeated dosing regimen of roflumilast/roflumilast-N-oxide is about two-fold compared to the plasma concentration levels following a once a day single dosing.

[3] = test system: phosphodiesterase 4; details: in humans after roflumilast; cited from earlier work
[4] = test system: male C57BL/6NCrl mice; experiment: Object Location Task (OLT), spatial memory, 24 h retention interval; assay type: in vivo; details: for d2 index, discrimination index for T2: 3 h after T1, 24 h interval
Text: The objective of this study was to evaluate the cognitive improvement effects of Roflumilast on spatial memory employing Object Location Task (OLT) in male C57BL/6NCrl mice. Roflumilast was compared with data of the already established PDE4 inhibitor Rolipram in the same model.
Twenty-four 7 month-old male C57BL/6NCrl mice (Charles River, L'Arbresle, France) were used (average body weights: 27.6 g). The animals were kept under a 12/12-hour light/dark cycle (lights on from 07.00 pm to 07.00 am) with free access to food and water. All testing was done between 09.00 am and maximally 06.00 pm.
Both rolipram (Sigma-Aldrich St. Louis, USA; MW 275.34) and roflumilast (Biocrea, Radebeul, Germany; MW 403.21) were dissolved in dimethylsulfoxide (DMSO) and kept at 4° C.; this stock solution was used for further dilutions in 0.5% methylcellulose. Each of rolipram and roflumilast is used in form of its free base. All injected solutions consisted of 0.5% methylcellulose with a fixed DMSO percentages (1.2%) (vehicle).
For the Object Location Task (OLT), doses of 0.01 mg/kg, 0.03 mg/kg and 0.1 mg/kg of Rolipram or Roflumilast or vehicle were administered subcutaneously (s.c.). Based on previous findings, PDE4 inhibitor single administration was performed 3 hours after the first trial as this has an optimum effect on object memory performance. The injection volume was 5 μl/g.
The OLT apparatus consisted of a circular arena, 40 cm in diameter. Half of the 40 cm transparent polyvinyl chloride wall was covered from the outside with white paper. Two objects were placed symmetrically about 10 cm away from the wall on the separation line, between the transparent and covered side of the arena. Four different sets of objects were available: (1) a cone made of brass (maximal diameter 6 cm and total height 3.8 cm), (2) a transparent glass bottle (diameter 2.7 cm, height 8.5 cm) filled with sand and water, (3) a massive metal cube (2.5 cm×5 cm×7.5 cm) with two holes (diameter 1.5 cm), and (4) a massive aluminum cube with a tapering top (4.5 cm×4.5 cm×8.5 cm).
A testing session comprised two trials of 4 minutes. Before each trial, mice were placed in an empty Makrolon cage (incubation cage) for the same amount of time as the trial (4 min). During the first trial (T1), two identical objects were placed symmetrically about 10 cm away from the wall on the separation line between the transparent and covered side of the arena. After the first exploration period of 4 min, the mouse was put back in its home cage. Mice then received treatment at 3 hours post T1. Subsequently, after a predetermined delay interval (24 h), the mouse was placed in the apparatus for the second trial of 4 min (T2). Two identical objects as in T1 were used; one object was placed in the previously used position, whereas the other was placed in a novel position. The novel position of the object could either be a fixed distance towards the front or a fixed distance towards the back of the arena for both objects. The times spent exploring each object during T1 and T2 were recorded manually using a personal computer. All objects and locations were used in a balanced manner to exclude possible object and/or location preferences. To avoid olfactory cues, the objects were thoroughly cleaned with 70% ethanol after each trial. The testing order of conditions was determined randomly.
The measurements reflected the time spent by the mice in exploring each object during T1 and T2. The time spent in exploring the two identical samples in T1 were represented by ‘a1’ and ‘a2’, respectively. The time spent in exploring the sample and the new object in T2 were represented by ‘a’ and ‘b’, respectively. From these exploration times the following variables were calculated: e1, e2, and d2 (Table 1). The d2 index is a relative measure of discrimination corrected for exploratory activity. […]

[5] = test system: xylazine/ketamine induced α2-adrenergic receptor-mediated anesthesia; details: in vivo, 0.3 mg/kg
Text: Since emesis is a typical side-effect of PDE4 inhibitors the emetic potential of roflumilast and rolipram was investigated in parallel using the xylazine/ketamine induced α2-adrenergic receptor-mediated anesthesia test. The results confirmed that the two phosphodiesterase 4 inhibitors have different effects on emesis.

[6] = test system: male Wistar rats; experiment: Object recognition task (ORT), scopolamine induced memory deficit; assay type: in vivo
Method: Memory acquisition processes are investigated using the object recognition test (ORT).
Twenty four 3-4 month old male Wistar rats (Charles River, Sulzfeld, Germany) were used for the study. All animals were housed individually in standard green line Tecniplast IVC cages on stardust bedding. The animals were housed on a reversed 12/12 h light/dark cycle (lights on from 07:00 pm to 07:00 am) and had free access to food and water. The rats were housed and tested in the same room. A radio, playing softly, provided background noise in the room. All testing was performed between 09:00 am and 06:00 pm.
Drugs were prepared daily, except as indicated otherwise. Roflumilast (Takeda, Konstanz, Germany, MW 403.21) was dissolved in 98% methylcellulose solution (0.5% methylcellulose) and 2% Tween 80. Roflumilast in doses of 0 (vehicle), 0.0001, 0.0003, 0.001, 0.003, 0.01 and 0.03 mg/kg was administered intraperitonally (ip, injection volume 1 ml/kg). […] All compounds were administered 30 min before T1.
The testing order of conditions was determined randomly. The experimenter was blind of testing protocol. A within design was used and all treatment conditions were balanced over rats. The ORT was performed as described elsewhere (Ennaceur and Delaceur, 1988, Behav Brain Res, Vol 31, pp 47-59; Akkerman et al; 2012, Behav Brain Res, Vol 232, pp 335-347). The apparatus consisted of a circular arena, 83 cm in diameter. The back half of the 40 cm high wall was made of grey PVC and the front was made of transparent PVC. Fluorescent red tubes and a light bulb provided a constant illumination of about 20 lux on the floor of the apparatus. The light intensity was equal in the different parts of the apparatus.
Two objects were placed in symmetrical positions at the mid-line between the gray and transparent halves of the arena, about ten centimeters away from wall. Four different sets of objects were available: 1) a standard 1 L brown transparent glass bottle (diameter 10 cm, height 22 cm) filled with water, 2) a metal cube (10.0×5.0×7.5 cm) with two holes (diameter 1.9 cm), 3) a cone consisting of a gray PVC base (maximal diameter 18 cm) with a collar on top made of brass (total height 16 cm), and 4) an aluminum cube with a tapering top (13.0×8.0×8.0 cm). Objects were presented to the animals in a balanced manner to avoid object or place biases. Rats were unable to displace the objects.
A test session comprised two trials, each with durations of 3 min. During the learning trial (T1) the apparatus contains two identical objects (object a1 and a2). Rats were always introduced into the apparatus with their nose towards the transparent wall segment (i.e. facing outwards to the front of the arena). Subsequently, rats were put back in its home cage for a 1 h interval. After the retention interval, rats were put back into the arena for the […] (T2). In T2, the two objects from T1 were replaced by one identical copy (a3) and a different novel object (b). The times spent in exploring each object during T1 and T2 were recorded manually on a personal computer.
Exploration was defined in the following manner: directing the nose to the object at a distance of no more than 2 cm and/or touching the object with the nose. Sitting on the object was not considered as exploratory behavior. In order to avoid the presence of olfactory cues, the objects were thoroughly cleaned with a 70% ethanol solution before each trial.
Prior to compound testing, the animals were handled for 5 min on 2 consecutive days and allowed to explore the ORT arena, also for 5 min. Subsequently, the animals were accustomed to the complete ORT testing procedure without receiving any injection.
The readout parameters of the object recognition task are the times that rats spent on exploring each object during T1 and T2. The exploration time (in seconds) of each object during T1 are presented as “a1” and “a2”.

[7] = test system: rats; details: cited from earlier work
[8] = test system: rats; details: cited from earlier work; remark: listed apart in the source

## O=C(Nc1c(Cl)c[n+]([O-])cc1Cl)c1ccc(OC(F)F)c(OCC2CC2)c1 [roflumilast-N-oxide, 3-cyclopropylmethoxy-4-difluoromethoxy-N-(3,5-dichloro-1-oxypyrid-4-yl)benzamide]
[1]
  exposure: consistent with those previously reported
[2]
  steady state plasma concentration levels compared to single dosing: about two-fold
[3]
  share of overall phosphodiesterase 4 inhibition: more than 90%

## COc1ccc(C2CNC(=O)C2)cc1OC1CCCC1 (stereo not shown) [rolipram]
[4]; 0.01 mg/kg s.c.
  d2 index, discrimination index for T2: 0.08
[4]; 0.03 mg/kg s.c.
  d2 index, discrimination index for T2: 0.13
[4]; 0.1 mg/kg s.c.
  d2 index, discrimination index for T2: 0.07
[4]; s.c.
  dose effective in improving spatial memory: 0.03 mg/kg
[5]
  emetic potential: strong emetic potential

## CN1[C@@H]2C[C@@H](OC(=O)[C@H](CO)c3ccccc3)C[C@H]1[C@@H]1O[C@@H]12 [scopolamine]
[6]; scopolamine 0.1 mg/kg + veh + veh, rof + dpz study
  d2: −0.04
[6]; scopolamine 0.1 mg/kg ip + vehicle, dose response study
  d2: 0.01

## COc1cc2c(cc1OC)C(=O)C(CC1CCN(Cc3ccccc3)CC1)C2.Cl (racemic) [donepezil, (±)-2,3-dihydro-5,6-dimethoxy2-[[1-(phenylmethyl)-4-piperidinyl]methyl]-1H-inden-1-one]
[6]; scopolamine 0.1 mg/kg + donepezil 0.1 mg/kg p.o.
  d2: 0.04

## O=C(NC1CC1)c1cn(-c2cccc(-c3ccc([C@@H]4C[C@H]4C(=O)O)c(F)c3)c2)c2ncccc2c1=O [MK-0952]
[7]
  novel object recognition (in words): improvement of novel object recognition
[8]
  Water Maze DMTP test (in words): improvement
